Data from patent publication US9550744B2, “Vitamin C prodrugs and uses thereof” (priority 2013, dated 2017).

Key:
[1] = solubility in octanol, room temperature
Method: Lipid solubility (SLIPID): Each compound (50-100 mg) was stirred at rt in four test tubes containing 2 or 3 mL of isopropyl myristate (IPM) or octanol (OCT) overnight. The saturated suspensions were filtered and about 0.020 mL of each filtrate was diluted with 5 or 10 mL of acetonitrile (ACN). The UV absorbances of the diluted filtrates were measured and the concentrations of each compound in either IPM (SIPM) or OCT (SOCT) were determined using Beer's Law as above but using previously measured ε of each compound in ACN.
The solubilities in the lipid, SOCT or SIPM, could also then be calculated from KLIPID:AQ=SLIPID/SAQ.

[2] = solubility in water, room temperature (23±0.5° C.)
Method: After the suspensions were allowed to settle, about 0.020 mL of each supernatant was added to a UV cuvette containing about 2.98 mL of Millipore H2O, and the UV absorption of each solution was measured. The concentration, SAQ, of each compound was determined using Beer's Law and the previously measured molar absorptivities (ε, L mol^−1cm^−1) of each compound in water where A is the absorbance (no units), b is the path length of the cuvette (cm) and c is the concentration (mol L^−1) of each compound in the supernatant. Beer's Law: A=εbc c=A/εb

[3] = Hydrolysis at pH 10.0 followed by iodine titration; format: physicochemical; conditions: pH 10.0, iodine titration with starch indicator
Method: If no free enediol is present, the excess iodine reacts with a starch indicator to give a blue color. During the titration, as iodine solution was added to the prodrug solution, a blue color formed initially but faded as the free enediol was released by hydrolysis of the prodrug and the iodine was reduced to iodide.

Row | Structure (SMILES) | log SOCT [1] | log SAQ [2] | theoretical amount of ascorbic acid acetonide formed from hydrolysis of the prodrug [3] [%]
1 | CC(=O)OCOC1=C(OC(C)=O)C(=O)OC1C(O)CO (centres unmarked) [2-AcC1-3-SMC1 ascorbic acid] | 1.66 | 2.05 | –
2 | CC(=O)OCOC1=C(OC(C)=O)C(=O)OC1C1COC(C)(C)O1 [2-AcC1-3-SMC1 ascorbic acid acetonide, 5,6-Isopropylidene-3-O-(acetyloxymethyl)-2-O-acetyl-L-ascorbic acid] | 1.55 | 1.56 | –
3 | CCC(=O)OCOC1=C(OC(=O)CC)C(=O)OC1C1COC(C)(C)O1 (centres unmarked) [2-ethylcarbonyl-3-ethylcarbonyloxymethyl-5,6-isopropylidene ascorbic acid] | – | – | 95.7
